Molecular target: T1, Human Cav2.2 channels (Homo sapiens, UniProt Q00975)
T1 construct: expressed in transfected cells
Experiment: Fluorescent assay for Cav2.2 channels using potassium depolarization to initiate channel opening
Format: cell-based
Conditions: for inhibition at 10 µM: 10 μM compound, read-out: Cav 2.2 Activity % Inh at 10 μM; for inhibition at 30 µM: 30 μM compound, read-out: Cav 2.2 Activity % Inh at 30 μM; for IC50: 30 mM K (block of open and inactivated channels), read-out: Cav 2.2 Activity IC50 at 30 mM K
Outline: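 HEK293 cells stably expressing human Cav2.2 with alpha2-delta and beta subunits plus Kir2.3, dye-loaded, then held 30 min at 25° C. in 4, 12, 25 or 30 mM K+ pre-polarization buffer with compound.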

T1 sequence (Q00975 whole entry): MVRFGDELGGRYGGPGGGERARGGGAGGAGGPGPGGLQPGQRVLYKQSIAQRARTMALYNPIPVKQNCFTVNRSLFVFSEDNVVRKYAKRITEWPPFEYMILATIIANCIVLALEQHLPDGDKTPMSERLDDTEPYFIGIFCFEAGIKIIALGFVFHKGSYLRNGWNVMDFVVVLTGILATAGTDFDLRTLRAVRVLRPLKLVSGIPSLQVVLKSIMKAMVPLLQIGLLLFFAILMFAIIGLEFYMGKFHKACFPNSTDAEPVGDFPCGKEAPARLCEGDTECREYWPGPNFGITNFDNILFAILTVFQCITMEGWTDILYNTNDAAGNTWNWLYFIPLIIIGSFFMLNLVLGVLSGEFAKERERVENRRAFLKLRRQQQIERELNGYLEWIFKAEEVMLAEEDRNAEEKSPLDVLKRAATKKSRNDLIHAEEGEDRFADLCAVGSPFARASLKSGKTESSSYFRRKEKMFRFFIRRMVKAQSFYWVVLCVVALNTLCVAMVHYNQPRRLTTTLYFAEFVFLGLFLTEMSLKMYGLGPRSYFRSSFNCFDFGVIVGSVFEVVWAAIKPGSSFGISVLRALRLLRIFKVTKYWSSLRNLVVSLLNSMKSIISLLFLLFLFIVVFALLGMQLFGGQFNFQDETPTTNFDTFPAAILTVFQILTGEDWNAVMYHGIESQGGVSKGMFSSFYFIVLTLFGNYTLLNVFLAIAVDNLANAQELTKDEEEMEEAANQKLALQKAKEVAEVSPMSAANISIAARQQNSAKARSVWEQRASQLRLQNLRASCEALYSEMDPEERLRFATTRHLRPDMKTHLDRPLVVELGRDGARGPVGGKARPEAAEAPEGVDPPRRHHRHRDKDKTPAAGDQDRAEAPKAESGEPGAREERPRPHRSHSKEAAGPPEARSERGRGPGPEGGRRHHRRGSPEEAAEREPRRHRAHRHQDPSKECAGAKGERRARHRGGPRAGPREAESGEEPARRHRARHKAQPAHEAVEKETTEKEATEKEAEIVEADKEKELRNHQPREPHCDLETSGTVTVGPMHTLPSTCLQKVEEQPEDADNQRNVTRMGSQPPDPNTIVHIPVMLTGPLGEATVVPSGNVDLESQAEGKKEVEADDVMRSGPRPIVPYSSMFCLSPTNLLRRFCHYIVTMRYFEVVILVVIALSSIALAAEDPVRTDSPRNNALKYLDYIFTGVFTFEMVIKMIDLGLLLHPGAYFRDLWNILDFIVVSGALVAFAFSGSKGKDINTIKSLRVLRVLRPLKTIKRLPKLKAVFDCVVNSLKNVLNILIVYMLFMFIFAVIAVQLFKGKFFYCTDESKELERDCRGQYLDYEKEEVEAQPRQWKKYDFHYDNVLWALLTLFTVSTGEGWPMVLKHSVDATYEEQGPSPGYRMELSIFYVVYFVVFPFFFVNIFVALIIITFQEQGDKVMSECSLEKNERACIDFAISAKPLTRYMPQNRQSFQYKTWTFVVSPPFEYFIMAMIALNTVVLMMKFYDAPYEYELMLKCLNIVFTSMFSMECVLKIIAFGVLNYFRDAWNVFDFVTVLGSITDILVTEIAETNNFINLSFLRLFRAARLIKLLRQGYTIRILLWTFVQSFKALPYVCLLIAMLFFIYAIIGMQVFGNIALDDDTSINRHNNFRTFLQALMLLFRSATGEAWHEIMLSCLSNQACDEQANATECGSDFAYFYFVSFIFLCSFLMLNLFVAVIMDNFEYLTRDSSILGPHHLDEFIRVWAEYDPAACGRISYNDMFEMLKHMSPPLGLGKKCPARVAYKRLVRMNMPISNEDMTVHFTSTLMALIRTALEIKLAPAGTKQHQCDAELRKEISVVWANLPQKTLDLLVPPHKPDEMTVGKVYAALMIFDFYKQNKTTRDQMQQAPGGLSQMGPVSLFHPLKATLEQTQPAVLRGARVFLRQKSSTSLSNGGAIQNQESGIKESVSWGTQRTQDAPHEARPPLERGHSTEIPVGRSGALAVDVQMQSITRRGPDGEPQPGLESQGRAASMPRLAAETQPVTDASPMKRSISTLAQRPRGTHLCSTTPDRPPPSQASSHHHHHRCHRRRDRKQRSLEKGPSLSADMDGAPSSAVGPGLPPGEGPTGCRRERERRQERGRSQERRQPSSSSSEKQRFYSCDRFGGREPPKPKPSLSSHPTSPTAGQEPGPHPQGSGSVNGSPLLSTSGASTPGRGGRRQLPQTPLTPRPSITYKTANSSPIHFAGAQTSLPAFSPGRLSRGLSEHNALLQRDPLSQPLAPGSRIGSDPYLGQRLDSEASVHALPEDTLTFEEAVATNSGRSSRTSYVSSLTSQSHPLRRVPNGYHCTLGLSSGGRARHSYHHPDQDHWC
T1 sequence (P54289 25-1103 partner): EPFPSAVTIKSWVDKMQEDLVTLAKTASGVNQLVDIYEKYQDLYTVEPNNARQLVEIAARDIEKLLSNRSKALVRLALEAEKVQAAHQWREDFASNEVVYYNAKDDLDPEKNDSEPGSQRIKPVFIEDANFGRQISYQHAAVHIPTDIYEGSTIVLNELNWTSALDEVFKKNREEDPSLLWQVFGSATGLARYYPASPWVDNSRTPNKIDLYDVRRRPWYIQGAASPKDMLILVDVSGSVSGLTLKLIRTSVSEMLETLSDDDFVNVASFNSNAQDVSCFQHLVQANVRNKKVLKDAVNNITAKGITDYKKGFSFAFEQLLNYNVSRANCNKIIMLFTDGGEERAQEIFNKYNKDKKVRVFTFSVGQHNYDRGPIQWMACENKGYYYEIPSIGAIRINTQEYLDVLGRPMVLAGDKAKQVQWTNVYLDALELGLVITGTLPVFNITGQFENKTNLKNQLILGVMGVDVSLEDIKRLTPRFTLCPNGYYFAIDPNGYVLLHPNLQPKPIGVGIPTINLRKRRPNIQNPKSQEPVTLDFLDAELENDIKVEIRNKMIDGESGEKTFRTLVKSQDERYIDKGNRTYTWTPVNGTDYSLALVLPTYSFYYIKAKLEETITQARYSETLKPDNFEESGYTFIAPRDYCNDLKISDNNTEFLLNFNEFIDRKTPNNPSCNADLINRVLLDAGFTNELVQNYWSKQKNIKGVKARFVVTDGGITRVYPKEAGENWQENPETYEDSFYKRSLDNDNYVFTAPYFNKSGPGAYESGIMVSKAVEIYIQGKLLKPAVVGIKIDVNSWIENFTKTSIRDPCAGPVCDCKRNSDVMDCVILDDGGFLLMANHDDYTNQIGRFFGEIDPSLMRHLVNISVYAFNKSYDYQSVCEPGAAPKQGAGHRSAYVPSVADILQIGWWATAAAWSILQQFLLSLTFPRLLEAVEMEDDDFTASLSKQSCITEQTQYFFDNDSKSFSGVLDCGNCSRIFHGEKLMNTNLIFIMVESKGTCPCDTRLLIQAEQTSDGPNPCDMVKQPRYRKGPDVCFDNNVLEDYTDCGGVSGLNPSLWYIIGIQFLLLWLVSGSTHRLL
T1 sequence (P54284 whole entry partner): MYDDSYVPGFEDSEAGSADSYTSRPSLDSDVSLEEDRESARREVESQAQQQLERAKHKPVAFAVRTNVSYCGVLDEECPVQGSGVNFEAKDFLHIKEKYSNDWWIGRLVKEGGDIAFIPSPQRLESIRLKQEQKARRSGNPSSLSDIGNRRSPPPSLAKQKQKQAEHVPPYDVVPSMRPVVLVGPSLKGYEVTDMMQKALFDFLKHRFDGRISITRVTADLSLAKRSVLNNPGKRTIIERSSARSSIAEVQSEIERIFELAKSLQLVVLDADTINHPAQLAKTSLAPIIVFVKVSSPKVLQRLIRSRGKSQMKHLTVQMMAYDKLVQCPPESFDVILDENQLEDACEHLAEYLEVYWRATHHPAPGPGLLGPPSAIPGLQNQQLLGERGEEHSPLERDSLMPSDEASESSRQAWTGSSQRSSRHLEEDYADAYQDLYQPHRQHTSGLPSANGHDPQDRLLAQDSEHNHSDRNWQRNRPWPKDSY

Row | Compound | inhibition at 10 µM [%] | inhibition at 30 µM [%] | IC50 [nM]
1 | CC(C)(C)c1cc(C(=O)NC2(C(=O)NCc3ccc(NS(C)(=O)=O)cc3)CC2)cc(C(C)(C)C)c1O [Compound 117, 3,5-di-tert-butyl-4-hydroxy-N-(1-(4-(methylsulfonamido)benzylcarbamoyl)cyclopropyl)benzamide] | 74.2 | 101 | 1090
2 | CC(C)(C)c1cc(C(=O)NC2(C(=O)Nc3ccccn3)CC2)cc(C(C)(C)C)c1O [Compound 4, 3,5-di-tert-butyl-4-hydroxy-N-(1-(pyridin-2-ylcarbamoyl)cyclopropyl)benzamide] | 68 | 76 | 355
3 | COc1c(C(C)(C)C)cc(C(=O)NC2(C(=O)N3CCN(C)CC3)CCCCC2)cc1C(C)(C)C [Compound 104, 3,5-di-tert-butyl-4-methoxy-N-(1-(4-methylpiperazine-1-carbonyl)cyclohexyl)benzamide] |  |  | 1020
4 | CC(C)(C)c1cc(C(=O)NC2(C(=O)NCc3cccc(C(F)(F)F)c3)CCCC2)cc(C(C)(C)C)c1 [Compound 39, 3,5-di-tert-butyl-N-(1-(3-(trifluoromethyl)benzylcarbamoyl)cyclopentyl)benzamide] | 79.6 | 77.9 | 513
5 | COc1ccc(CNC(=O)C2(NC(=O)c3cc(C(C)(C)C)nc(C(C)(C)C)c3)CCOCC2)cc1 [Compound 113, 2,6-di-tert-butyl-N-(4-(4-methoxybenzylcarbamoyl)tetrahydro-2H-pyran-4-yl)isonicotinamide] | 79 | 93 | 59.4
6 | CC(C)(C)c1cc(C(=O)NC2(C(=O)N3CCN(Cc4ccccc4)CC3)CCCCC2)cc(C(C)(C)C)n1 [Compound 69, N-(1-(4-benzylpiperazine-1-carbonyl)cyclohexyl)-2,6-di-tert-butylisonicotinamide] | 88.3 | 95.3 | 538
7 | COc1c(C(C)(C)C)cc(C(=O)NC2(C(=O)NCc3ccc(S(C)(=O)=O)cc3)CCCCC2)cc1C(C)(C)C [Compound 108, 3,5-di-tert-butyl-4-methoxy-N-(1-(4-(methylsulfonyl)benzylcarbamoyl)cyclohexyl)benzamide] |  |  | 81.6
8 | CC(C)(C)c1cc(C(=O)NC2(C(=O)Nc3ccccn3)CC2)cc(C(C)(C)C)n1 [Compound 20, 2,6-di-tert-butyl-N-(1-(pyridin-2-ylcarbamoyl)cyclopropyl)isonicotinamide] | 100 |  | 102
9 | Cc1cc(CNC(=O)C2(NC(=O)c3cc(C(C)(C)C)nc(C(C)(C)C)c3)CC2)no1 [Compound 9, 2,6-di-tert-butyl-N-(1-((5-methylisoxazol-3-yl)methylcarbamoyl)cyclopropyl)isonicotinamide] | 45.7 | 53.4 | 
10 | CC(C)(C)c1cc(C(=O)NC2(C(=O)N3CCOCC3)CCCC2)cc(C(C)(C)C)n1 [Compound 94, 2,6-di-tert-butyl-N-(1-(morpholine-4-carbonyl)cyclopentyl)isonicotinamide] | 96.6 | 87.2 | 329
11 | CC(C)(C#N)c1cc(C(=O)NC2(C(=O)NCc3cccc(C(F)(F)F)c3)CCCCC2)ccn1 [Compound 119, 2-(2-cyanopropan-2-yl)-N-(1-(3-(trifluoromethyl)benzylcarbamoyl)cyclohexyl)isonicotinamide] | 63.1 |  | 
12 | COc1ccc(CNC(=O)C2(NC(=O)c3cc(C(C)(C)C)c(O)c(C(C)(C)C)c3)CCCCC2)cc1 [Compound 67, 3,5-di-tert-butyl-4-hydroxy-N-(1-(4-methoxybenzylcarbamoyl)cyclohexyl)benzamide] | 94.4 | 98.6 | 20.6
13 | COc1c(C(C)(C)C)cc(C(=O)NC2(C(=O)NCc3ccccc3)CCCCC2)cc1C(C)(C)C [Compound 32, N-(1-(benzylcarbamoyl)cyclohexyl)-3,5-di-tert-butyl-4-methoxybenzamide] | 88.8 | 98 | 5.6
14 | CC(C)(C)c1cc(C(=O)NC2(C(=O)NCc3ccc(S(C)(=O)=O)cc3)CCCCC2)cc(C(C)(C)C)c1O [Compound 112, 3,5-di-tert-butyl-4-hydroxy-N-(1-(4-(methylsulfonyl)benzylcarbamoyl)cyclohexyl)benzamide] | 96.7 | 102 | 138
15 | CC(C)(C)c1cc(C(=O)NC2(C(=O)NCCCN3CCOCC3)CCCCC2)cc(C(C)(C)C)c1 [Compound 102, 3,5-di-tert-butyl-N-(1-(3-morpholinopropylcarbamoyl)cyclohexyl)benzamide] |  |  | 253
16 | CC(C)(C)c1cc(C(=O)NC2(C(=O)NCc3ccc(F)cc3)CCCCC2)cc(C(C)(C)C)c1 [Compound 49, 3,5-di-tert-butyl-N-(1-(4-fluorobenzylcarbamoyl)cyclohexyl)benzamide] | 103 | 91.6 | 44.2

Row | Compound | inhibition at 10 µM [%] | inhibition at 30 µM [%] | IC50 [nM]
17 | CC(C)(C)c1cc(C(=O)NC2(C(=O)N3CCCC3)CCCC2)cc(C(C)(C)C)n1 [Compound 92, 2,6-di-tert-butyl-N-(1-(pyrrolidine-1-carbonyl)cyclopentyl)isonicotinamide] | 89.5 | 92.2 | 225
18 | CC(C)(C)c1cc(C(=O)NC2(C(=O)NCCCN3CCOCC3)CCCCC2)cc(C(C)(C)C)n1 [Compound 99, 2,6-di-tert-butyl-N-(1-(3-morpholinopropylcarbamoyl)cyclohexyl)isonicotinamide] |  |  | 700
19 | CC(C)(C)c1cc(C(=O)NC2(C(=O)NCc3ccc(S(C)(=O)=O)cc3)CCCCC2)cc(C(C)(C)C)n1 [Compound 106, 2,6-di-tert-butyl-N-(1-(4-(methylsulfonyl)benzylcarbamoyl)cyclohexyl)isonicotinamide] |  |  | 317
20 | CC(C)(C)c1cc(C(=O)NC2(C(=O)NCc3ccncc3)CCCCC2)cc(C(C)(C)C)n1 [Compound 100, 2,6-di-tert-butyl-N-(1-(pyridin-4-ylmethylcarbamoyl)cyclohexyl)isonicotinamide] |  |  | 154
21 | Cc1cc(CNC(=O)C2(NC(=O)c3cc(C(C)(C)C)cc(C(C)(C)C)c3)CCCCC2)nn1C [Compound 68, 3,5-di-tert-butyl-N-(1-((1,5-dimethyl-1H-pyrazol-3-yl)methylcarbamoyl)cyclohexyl)benzamide] | 98.4 | 94 | 64.9
22 | Cc1cc(CNC(=O)C2(NC(=O)c3cc(C(C)(C)C)c(O)c(C(C)(C)C)c3)CC2)nn1C [Compound 2, 3,5-di-tert-butyl-N-(1-((1,5-dimethyl-1H-pyrazol-3-yl)methylcarbamoyl)cyclopropyl)-4-hydroxybenzamide] | 99 | 104 | 1410
23 | COc1c(C(C)(C)C)cc(CNC(=O)C2(NC(=O)c3cccc(C(F)(F)F)c3)CCCCC2)cc1C(C)(C)C [Compound 73, N-(1-(3,5-di-tert-butyl-4-methoxybenzylcarbamoyl)cyclohexyl)-3-(trifluoromethyl)benzamide] | 95.2 | 97.7 | 124
24 | CNC(=O)C1(NC(=O)c2cc(C(C)(C)C)c(OC)c(C(C)(C)C)c2)CCCCC1 [Compound 28, 3,5-di-tert-butyl-4-methoxy-N-(1-(methylcarbamoyl)cyclohexyl)benzamide] | 82.6 | 89.4 | 69.3
25 | COc1c(C(C)(C)C)cc(C(=O)NC2(C(=O)N3CCOCC3)CCCCC2)cc1C(C)(C)C [Compound 29, 3,5-di-tert-butyl-4-methoxy-N-(1-(morpholine-4-carbonyl)cyclohexyl)benzamide] | 85.8 | 90.5 | 67.6
26 | CC(C)(C)c1cc(C(=O)NC2(C(=O)NCc3nccs3)CC2)cc(C(C)(C)C)c1O [Compound 1, 3,5-di-tert-butyl-4-hydroxy-N-(1-(thiazol-2-ylmethylcarbamoyl)cyclopropyl)benzamide] | 95.2 | 104 | 1210
27 | CC(C)(C)c1cc(C(=O)NC2(C(=O)NCc3cccc(C(F)(F)F)c3)CCCCC2)cc(C(C)(C)C)c1 [Compound 62, 3,5-di-tert-butyl-N-(1-(3-(trifluoromethyl)benzylcarbamoyl)cyclohexyl)benzamide] | 94.3 | 88.1 | 99.1
28 | CC(C)(C)NC(=O)C(C)(C)c1ccc(C(=O)NC2(C(=O)NCc3ccccc3)CCCCC2)cc1 [Compound 125, N-(1-(benzylcarbamoyl)cyclohexyl)-4-(1-(tert-butylamino)-2-methyl-1-oxopropan-2-yl)benzamide] | 89.6 | 85.8 | 739
29 | COc1ccc(CNC(=O)C2(NC(=O)c3cc(C(C)(C)C)cc(C(C)(C)C)c3)CCCC2)cc1 [Compound 37, 3,5-di-tert-butyl-N-(1-(4-methoxybenzylcarbamoyl)cyclopentyl)benzamide] | 93 | 95.8 | 153
30 | Cc1cc(CNC(=O)C2(NC(=O)c3cc(C(C)(C)C)c(O)c(C(C)(C)C)c3)CCCCC2)no1 [Compound 12, 3,5-di-tert-butyl-4-hydroxy-N-(1-((5-methylisoxazol-3-yl)methylcarbamoyl)cyclohexyl)benzamide] | 98.6 | 101 | 55
31 | CN(C)c1ccccc1CNC(=O)C1(NC(=O)c2cc(C(C)(C)C)nc(C(C)(C)C)c2)CCOCC1 [Compound 26, 2,6-di-tert-butyl-N-(4-(2-(dimethylamino)benzylcarbamoyl)tetrahydro-2H-pyran-4-yl)isonicotinamide] | 49 |  | 

Source: patent US20090270394A1, “CYCLYLAMINE DERIVATIVES AS CALCIUM CHANNEL BLOCKERS” (priority 2008, published 2009)
